{
  "source": "patent US4596710A",
  "about": "“Gallium chloride as a new anti-cancerous drug” (priority 1981, dated 1986)",
  "test": "Clinical and biological tolerance in patients",
  "description": "Mrs. […] Post-operative chemotherapy (5-fluoro-uracil and endoxan) was then effected up to April 1979. At that time, […] underwent a second operation with excision of the remaining cervix and omentectomy. […] Cobalt therapy was then carried out from Nov. 5th, 1979 to Feb. 5th, 1980 on the abdomen, pelvis and diaphragm cupolas, then further chemotherapy (hexamethylmelamine) from August to October 1980. […] Treatment by gallium chloride started on Nov. 1 st, 1980 at the posology of 300 mg per day per os in three doses of 100 mg. […] An echotomograph on Dec. […] A third echotomograph was made on Jan. […] On Mar.\nThe treatment by gallium chloride was started on May 15th, 1981, at the posology of 600 mg/24 hours up to Sept. 20th, 1981, in association with a heparinotherapy at mini-doses. This heparinotherapy had been prescribed to prevent a phlebitis or pulmonary embolism following the surgical operation of April 1981 and had not been interrupted in order not to provoke the phenomenon of tumoral flare-up. [Calciparin (heparin calcium salt) 0.2 ml, 3 times per day by sub-cutaneous route]. […] On Sept. […] This was the case. . . […] 29th, 1981. […] Up to Nov. […] It was from Sept.\nHOT... […] , was operated on May 14th, 1981 for an adenocarcinoma of the colon. […] An almost total colectomy was carried out, leaving 20 cm of sigmoid and a resection of the small bowel over a length of 15 cm. […] On Oct. […] An exploratory laparotomy was made on Nov. […] 7th, 1982.\nGallium chloride therapy was started on Sept.",
  "key": {"[1]": {"conditions": "800 mg/24 hours oral, one month"}},
  "data": [
    {"smiles": "[Cl][Ga]([Cl])[Cl]", "note": "[gallium chloride]", "values": [
      {"measurement": "clinical and biological tolerance, 1st patient", "setting": "300 mg per day per os, two months uninterrupted", "result": "good"},
      {"measurement": "renal, hepatic, blood cells count disturbance, 5th patient", "setting": "[1]", "result": "no renal nor hepatic disturbance nor disturbances in the blood cells count"},
      {"measurement": "tolerance, 5th patient", "setting": "[1]", "result": "tolerated perfectly well, both from the clinical and biological point of view"},
      {"measurement": "anorexia leading to stop of therapy, 3rd patient", "setting": "800 mg/24 hours, from Nov. 27th, 1981", "result": "virtually total anorexia"},
      {"measurement": "tolerance, 4th patient", "setting": "500 then 300 mg/24 hours oral, without renal disorders", "result": "perfect clinically and biologically (without renal disorders in particular)"},
      {"measurement": "blood cells count, hepatic balance, calcemia, phosphatemia, 2nd patient", "setting": "Jan. 6th, 1982", "result": "normal"},
      {"measurement": "general state, 2nd patient", "setting": "Jan. 6th, 1982", "result": "good, with a normal appetite"},
      {"measurement": "inflammatory balance (haptoglobin), 2nd patient", "setting": "Jan. 6th, 1982", "result": "normal"},
      {"measurement": "creatinine, 2nd patient", "setting": "Jan. 6th, 1982, normal", "result": 88.50, "unit": "µmol/L"},
      {"measurement": "tolerance, 2nd patient", "setting": "Jan. 6th, 1982, oral since May 20th, 1981", "result": "perfectly well tolerated, without any digestive disorders or neurological, cardiac or cutaneous effects"},
      {"measurement": "weight, 2nd patient", "setting": "Jan. 6th, 1982, unchanged since beginning of treatment", "result": 71, "unit": "kg"},
      {"measurement": "tolerance of 800 mg/24 hours, 3rd patient", "setting": "Sept. 29th to Nov. 27th, 1981", "result": "tolerated up to Nov. 27th, 1981"},
      {"measurement": "digestive intolerance leading to interruption, 1st patient", "setting": "after Mar. 20th, 1981", "result": "had to be interrupted due to digestive intolerance"},
      {"measurement": "renal function and blood cells count, 3rd patient", "setting": "up to Nov. 27th, 1981", "result": "normal"},
      {"measurement": "weight, 3rd patient", "setting": "up to Sept. 20th, 1981, 600 mg/24 hours with Calciparin, stable", "result": 70, "unit": "kg"}
    ]}
  ]
}
